Test results reported in PMC8757452 (ACS Omega, 2021).
Values after ≈ are worked out from the molar mass of the structure shown.

Columns and labels:
T. cruzi (K-98 clone) = experiment: In vivo trypanocidal activity, murine model of Chagas disease; set-up: species or system BALB/c mice; settings: 1 mg/kg/day i.p.
T. cruzi epimastigotes [1] = experiment: T. cruzi epimastigotes growth inhibition, [3H] thymidine uptake assay; format: cell-based, Trypanosoma cruzi; settings: for IC50: 72 h, read-out: IC50 (μg/mL) ± SD on T. cruzi epimastigotes; for SI (selectivity index, relation between CC50 and IC50): CC50 splenocytes / IC50 epimastigotes
T. cruzi epimastigotes [2] = settings: ref [14], cited from earlier work
HeLa cells = settings: read-out: IC50, cytotoxicity on HeLa cells, ref [28]; cited from earlier work

In the case of O=C(Cn1ccnc1[N+](=O)[O-])NCc1ccccc1 [benznidazole], the “area under the parasitemia curve (AUC)” value (T. cruzi (K-98 clone); days 11-15 post-infection) is reported as 4, the sterile cure (T. cruzi (K-98 clone); five days) is reported as “neither Bz was able to cure” and the IC50 (T. cruzi epimastigotes [1]; Trypanosoma cruzi) is reported as 1 ± 0.62 µg/mL (≈ 3.84 µM).

For C=C1C(=O)O[C@@H]2[C@H]1CC[C@H](C)[C@@]1(O)C=CC(=O)[C@@]21C [compound 14, hymenin], the “SI (selectivity index, relation between CC50 and IC50)” value (T. cruzi epimastigotes [1]) was 0.8 and the IC50 (T. cruzi epimastigotes [1]; Trypanosoma cruzi) was 1.5 ± 0.09 µg/mL (≈ 5.72 µM).

In the case of C=C1C(=O)O[C@@H]2C[C@@H](C)[C@@H]3C=CC(=O)[C@@]3(C)[C@@H](O)[C@H]12 [compound 10, helenalin], the “SI (selectivity index, relation between CC50 and IC50)” value (T. cruzi epimastigotes [1]) is reported as 1.1, the IC50 (T. cruzi epimastigotes [1]; Trypanosoma cruzi) is reported as 0.29 ± 0.05 µg/mL (≈ 1.11 µM) and the inhibition at 1.5 µg/mL (T. cruzi epimastigotes [1]; Trypanosoma cruzi, read-out: inhibition of parasite replication) is reported as 66%.

For COC1=C(C(C)C)C(=O)C2=C(C[C@@]34CCCC(C)(C)[C@@H]3C[C@]2(O)O4)C1=O [K, Komaroviquinone], the IC50 of komaroviquinone (T. cruzi epimastigotes [2]; T. cruzi epimastigotes) is given as “a Komaroviquinone IC50 = 1.00 μg/mL ref ([14])” and the “log (1/IC50) of komaroviquinone” value (T. cruzi epimastigotes [2]; from IC50 = 1.00 μg/mL, IC50 in molar) is given as 5.43.

In the case of C=C1C[C@H](O)[C@H](Br)C(C)(C)[C@@]12CCC(C)=C(Cl)C2 [elatol], the IC50 (HeLa cells) is listed as 1.3 µM.
